# Test: xn = mol fraction of the nth substance listed
# Conditions: 101 kPa
structure (smiles),measurement,setting,value
CCOS(=O)(=O)[O-].CC[n+]1ccn(C)c1 + CC(=O)O,speed of sound,"293.15 K, x2 = 0",1693.1 m/s
same,speed of sound,"298.15 K, x2 = 0",1680.8 m/s
same,speed of sound,"303.15 K, x2 = 0",1668.5 m/s
CCC(=O)O + CCOS(=O)(=O)[O-].CC[n+]1ccn(C)c1,speed of sound,"293.15 K, x1 = 0.1678",1659.4 m/s
same,speed of sound,"293.15 K, x1 = 0.2655",1635.9 m/s
same,speed of sound,"293.15 K, x1 = 0.3539",1611.6 m/s
same,speed of sound,"293.15 K, x1 = 0.4224",1590.3 m/s
same,speed of sound,"293.15 K, x1 = 0.5516",1542.7 m/s
same,speed of sound,"293.15 K, x1 = 0.6556",1494.8 m/s
same,speed of sound,"293.15 K, x1 = 0.7707",1421.7 m/s
same,speed of sound,"293.15 K, x1 = 0.8774",1320.2 m/s
same,speed of sound,"293.15 K, x1 = 0.9405",1240.4 m/s
same,speed of sound,"293.15 K, x1 = 1",1164.7 m/s
same,speed of sound,"298.15 K, x1 = 0.0818",1665.8 m/s
same,speed of sound,"298.15 K, x1 = 0.1678",1647 m/s
same,speed of sound,"298.15 K, x1 = 0.3539",1598.8 m/s
same,speed of sound,"298.15 K, x1 = 0.4224",1577.4 m/s
same,speed of sound,"298.15 K, x1 = 0.5516",1529.4 m/s
same,speed of sound,"298.15 K, x1 = 0.6556",1481 m/s
same,speed of sound,"298.15 K, x1 = 0.7707",1407.2 m/s
same,speed of sound,"298.15 K, x1 = 0.8774",1304.5 m/s
same,speed of sound,"298.15 K, x1 = 0.9405",1223.4 m/s
same,speed of sound,"298.15 K, x1 = 1",1146 m/s
same,speed of sound,"303.15 K, x1 = 0.0818",1653.5 m/s
same,speed of sound,"303.15 K, x1 = 0.1678",1634.6 m/s
same,speed of sound,"303.15 K, x1 = 0.2655",1610.7 m/s
same,speed of sound,"303.15 K, x1 = 0.3539",1585.9 m/s
same,speed of sound,"303.15 K, x1 = 0.4224",1564.4 m/s
same,speed of sound,"303.15 K, x1 = 0.5516",1515.9 m/s
same,speed of sound,"303.15 K, x1 = 0.6556",1467 m/s
same,speed of sound,"303.15 K, x1 = 0.7707",1392.4 m/s
same,speed of sound,"303.15 K, x1 = 0.8774",1288.6 m/s
same,speed of sound,"303.15 K, x1 = 0.9405",1206.2 m/s
same,speed of sound,"303.15 K, x1 = 1",1127.1 m/s
same,speed of sound,"308.15 K, x1 = 0.0818",1641.2 m/s
same,speed of sound,"308.15 K, x1 = 0.1678",1622.2 m/s
same,speed of sound,"308.15 K, x1 = 0.4224",1551.4 m/s
same,speed of sound,"308.15 K, x1 = 0.5516",1502.5 m/s
same,speed of sound,"308.15 K, x1 = 0.6556",1453.1 m/s
same,speed of sound,"308.15 K, x1 = 0.7707",1377.8 m/s
same,speed of sound,"308.15 K, x1 = 0.8774",1272.8 m/s
same,speed of sound,"308.15 K, x1 = 1",1108.3 m/s
same,speed of sound,"313.15 K, x1 = 0.0818",1629.1 m/s
same,speed of sound,"313.15 K, x1 = 0.1678",1609.9 m/s
same,speed of sound,"313.15 K, x1 = 0.2655",1585.6 m/s
same,speed of sound,"313.15 K, x1 = 0.3539",1566 m/s
same,speed of sound,"313.15 K, x1 = 0.4224",1538.5 m/s
same,speed of sound,"313.15 K, x1 = 0.5516",1489.2 m/s
same,speed of sound,"313.15 K, x1 = 0.6556",1439.4 m/s
same,speed of sound,"313.15 K, x1 = 0.7707",1363.3 m/s
same,speed of sound,"313.15 K, x1 = 0.9405",1172.3 m/s
same,speed of sound,"313.15 K, x1 = 1",1089.6 m/s
CC(=O)O + CCOS(=O)(=O)[O-].CC[n+]1ccn(C)c1,speed of sound,"293.15 K, x1 = 0.308",1644.8 m/s
same,speed of sound,"293.15 K, x1 = 0.4031",1622.3 m/s
same,speed of sound,"293.15 K, x1 = 0.4737",1603.2 m/s
same,speed of sound,"293.15 K, x1 = 0.5975",1560.5 m/s
same,speed of sound,"293.15 K, x1 = 0.701",1510.8 m/s
same,speed of sound,"293.15 K, x1 = 0.8973",1339.1 m/s
same,speed of sound,"293.15 K, x1 = 1",1152.7 m/s
same,speed of sound,"298.15 K, x1 = 0.1993",1651.5 m/s
same,speed of sound,"298.15 K, x1 = 0.308",1632.2 m/s
same,speed of sound,"298.15 K, x1 = 0.4737",1590.2 m/s
same,speed of sound,"298.15 K, x1 = 0.5975",1547.1 m/s
same,speed of sound,"298.15 K, x1 = 0.701",1497 m/s
same,speed of sound,"298.15 K, x1 = 0.8973",1324 m/s
same,speed of sound,"298.15 K, x1 = 0.9512",1237.2 m/s
same,speed of sound,"303.15 K, x1 = 0.0978",1656.4 m/s
same,speed of sound,"303.15 K, x1 = 0.1993",1639 m/s
same,speed of sound,"303.15 K, x1 = 0.308",1619.5 m/s
same,speed of sound,"303.15 K, x1 = 0.4031",1596.6 m/s
same,speed of sound,"303.15 K, x1 = 0.4737",1577.1 m/s
same,speed of sound,"303.15 K, x1 = 0.5975",1533.6 m/s
same,speed of sound,"303.15 K, x1 = 0.701",1483.1 m/s
same,speed of sound,"303.15 K, x1 = 0.9512",1221 m/s
same,speed of sound,"303.15 K, x1 = 1",1118.4 m/s
same,speed of sound,"308.15 K, x1 = 0.0978",1644.2 m/s
same,speed of sound,"308.15 K, x1 = 0.1993",1626.6 m/s
same,speed of sound,"308.15 K, x1 = 0.308",1606.9 m/s
same,speed of sound,"308.15 K, x1 = 0.4737",1564 m/s
same,speed of sound,"308.15 K, x1 = 0.5975",1520.1 m/s
same,speed of sound,"308.15 K, x1 = 0.701",1469.2 m/s
same,speed of sound,"308.15 K, x1 = 0.8057",1394.1 m/s
same,speed of sound,"308.15 K, x1 = 0.8973",1293.3 m/s
same,speed of sound,"308.15 K, x1 = 0.9512",1204.9 m/s
same,speed of sound,"308.15 K, x1 = 1",1101.2 m/s
same,speed of sound,"313.15 K, x1 = 0.1993",1614.3 m/s
same,speed of sound,"313.15 K, x1 = 0.308",1594.4 m/s
same,speed of sound,"313.15 K, x1 = 0.4737",1551.1 m/s
same,speed of sound,"313.15 K, x1 = 0.701",1455.5 m/s
same,speed of sound,"313.15 K, x1 = 0.8057",1379.8 m/s
same,speed of sound,"313.15 K, x1 = 0.8973",1278 m/s
same,speed of sound,"313.15 K, x1 = 0.9512",1188.8 m/s
same,speed of sound,"313.15 K, x1 = 1",1084 m/s
CCOS(=O)(=O)[O-].CC[n+]1ccn(C)c1 + CCC(=O)O,speed of sound,"293.15 K, x2 = 0",1693.1 m/s
same,speed of sound,"298.15 K, x2 = 0",1680.8 m/s

# Source: a compilation of properties of binary mixtures (doi:10.1016/j.molliq.2014.09.055)
